Where two headings read alike, the source gives them in different places.
Assays:
[1] = biological target: T1, bovine serum albumin (BSA) (Bos taurus, UniProt P02769); experiment: NP TLC on plates impregnated with bovine serum albumin; assay type: binding; details: Table S3, NP plate impregnated with 2 mg/mL BSA; pH 7.4 mobile phase
T1 construct: purchased Sigma Aldrich

[2] = biological target: T1, bovine serum albumin (BSA); experiment: RP TLC on plates impregnated with bovine serum albumin; assay type: binding; details: Table S4, RP plate impregnated with 2 mg/mL BSA; pH 7.4 mobile phase
[3] = NP TLC on non-impregnated control plates; assay type: physicochemical; details: Table S3, non-impregnated NP plate; acetonitrile/acetate buffer pH 7.4/methanol 60:20:20
Experimental: (§1) For TLC chromatography, glass plates 20 × 20 cm from Merck, covered with silica gel with the addition of a fluorescent indicator, were used. Normal phase (NP) plates were used with standard Merck TLC Silica gel 60 F254 plates, while in reverse phase (RP) silanized plates RP-2: Merck TLC Silica gel 60 RP-2 F254 were used.
(§2) Normal and reversed phase thin layer chromatography (NP TLC and RP TLC respectively) was performed using silica-gel-coated glass plates. Half of them were covered with 2 mg/mL bovine serum albumin solution and half remained pure.
(§3) The mobility of the compounds was also determined on the plates with no protein as a modifier. […] The acetate buffer (20 mM) was prepared by dissolving 1.54 g of ammonium acetate in 1 L of distilled water. The pH was then adjusted with a concentrated ammonia solution using a pH meter. The plates were developed in standard, vertical chromatographic chambers, each time using 100 mL of the mobile phase, after the chamber was previously saturated with solvent vapors for approximately 1 h.
(§4) The unfolded-protein-impregnated plates and the control plates were scanned with a Desaga CD 60 densitometer. The values of the delay factor (Rf) were collected, i.e., the ratio of the distance traveled by the substance to be analyzed to the distance traveled through the front of the mobile phase. […] The experiment was repeated (for both BSA-coated and control plates) and the Rf values pooled are the mean of both series of experiments.

[4] = RP TLC on non-impregnated control plates; assay type: physicochemical; details: Table S4, non-impregnated RP plate; acetonitrile/acetate buffer pH 7.4/methanol 60:20:20
Experimental: as §1, §2, §3, §4

[5] = HPLC on immobilized artificial membrane column (HPLCIAM); assay type: physicochemical; details: for log k IAM: Table S5, IAM column, pH 7.4; for k IAM: Table S5, retention factor, IAM column, phosphate buffer pH 7.4/acetonitrile 80:20
Experimental: (§5) High performance liquid chromatography was performed using immobilized human serum albumin column (HPLCHSA) and immobilized artificial membrane (HPLCIAM). HPLC was the source of the log k values (logarithm of retention factor), log kHSA and log kIAM.
The second experiment was performed using an immobilized artificial membrane (IAM) column. The assay was also performed on a Perkin Elmer Series 200 instrument connected to a UV-VIS spectrometer as the detector. The analytical wavelength was the same for all compounds, at 210 nm. […] The mobile phase was a mixture of 10 mM phosphate buffer pH 7.4 and acetonitrile in the ratio 80:20 (v/v). The phosphate buffer was obtained by dissolving the finished tablet in the appropriate amount of distilled water (1 tablet per 200 mL). In this case, it was not necessary to adjust the pH of the buffer using a pH meter.
The phase flow through the system was set to 0.5 mL/min as recommended by the column manufacturer. The solutions were delivered to the column using an autosampler syringe, the injection size was 10 µL.
The experiment was then repeated and the collected retention rates were the mean values of both series.

[6] = biological target: T2, human serum albumin (HSA) (Homo sapiens, UniProt P02768)
T2 sequence (P02768 25-609): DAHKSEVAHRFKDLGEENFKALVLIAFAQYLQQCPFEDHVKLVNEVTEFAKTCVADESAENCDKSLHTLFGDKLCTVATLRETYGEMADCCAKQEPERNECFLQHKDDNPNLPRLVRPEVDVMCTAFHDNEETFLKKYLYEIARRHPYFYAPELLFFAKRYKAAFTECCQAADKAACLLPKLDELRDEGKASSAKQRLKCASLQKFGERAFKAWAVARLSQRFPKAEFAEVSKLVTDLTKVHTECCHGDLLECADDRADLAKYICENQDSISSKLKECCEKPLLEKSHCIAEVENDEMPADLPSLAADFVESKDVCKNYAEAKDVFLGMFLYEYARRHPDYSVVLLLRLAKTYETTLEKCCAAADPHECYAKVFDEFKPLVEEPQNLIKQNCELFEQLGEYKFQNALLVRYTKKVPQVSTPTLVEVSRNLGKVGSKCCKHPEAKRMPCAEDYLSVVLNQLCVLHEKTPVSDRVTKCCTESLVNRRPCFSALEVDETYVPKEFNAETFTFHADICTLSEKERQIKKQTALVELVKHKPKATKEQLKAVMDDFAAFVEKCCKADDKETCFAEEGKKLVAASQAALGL
Experimental: as §5
(§6) High performance liquid chromatography was performed using a chromatography column with immobilized human serum albumin. The assay was performed on a Perkin Elmer Series 200 instrument connected to a UV-VIS spectrometer as detector. The analytical wavelength was the same for all compounds at 210 nm. […] The acetate buffer was prepared by dissolving 0.77 g of ammonium acetate in 1 L of distilled water. The pH was then adjusted with a concentrated ammonia solution using a pH meter.
(§7) The phase flow through the system was set to 0.9 mL/min as recommended by the column manufacturer. The solutions were delivered to the column using an autosampler syringe, the injection size was 10 µL. Since the column could not be thermostated, the room was kept at a constant temperature of 25 degrees Celsius.
(§8) Chromatographic data (retention coefficient, k, and derivative, log k) were obtained with TotalChrom software connected to an HPLC instrument. […] The experiment was then repeated and the collected retention rates were the mean values of both series.

[7] = biological target: T2, human serum albumin (HSA); experiment: in vitro; details: immobilized hsa column, pH 7.4
Experimental: as §5, §6, §7, §8

plasma protein = details: ref DrugBank [7], cited from earlier work
[8] = Table S1, coded 1/0; ref DrugBank [7]; cited from earlier work
[9] = Table S1, plasma protein binding given as fraction
[10] = Table S5, retention factor, HSA column, pH 7.4, 25 degrees Celsius

T1 sequence (P02769 25-607): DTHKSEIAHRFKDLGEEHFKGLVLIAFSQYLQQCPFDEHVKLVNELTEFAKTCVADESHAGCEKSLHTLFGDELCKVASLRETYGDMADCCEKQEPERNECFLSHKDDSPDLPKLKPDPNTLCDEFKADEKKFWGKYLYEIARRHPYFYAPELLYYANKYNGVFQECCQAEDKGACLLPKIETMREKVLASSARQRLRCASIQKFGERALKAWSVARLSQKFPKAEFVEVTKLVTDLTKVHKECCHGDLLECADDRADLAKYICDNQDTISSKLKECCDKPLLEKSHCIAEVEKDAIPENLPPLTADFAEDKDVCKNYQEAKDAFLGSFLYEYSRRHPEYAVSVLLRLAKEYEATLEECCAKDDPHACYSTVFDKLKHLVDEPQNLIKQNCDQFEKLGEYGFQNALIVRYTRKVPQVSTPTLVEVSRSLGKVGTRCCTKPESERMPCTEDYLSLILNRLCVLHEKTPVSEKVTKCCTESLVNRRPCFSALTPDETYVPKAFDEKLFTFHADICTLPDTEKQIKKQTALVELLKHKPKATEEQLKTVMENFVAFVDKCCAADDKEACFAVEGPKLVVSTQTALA

SMILES | NP (Rf, BSA-impregnated NP plate) [1] | RP (Rf, BSA-impregnated RP plate) [2] | CNP (Rf, control NP plate) [3] | CRP (Rf, control RP plate) [4] | log k IAM [5] | k IAM [5] | k HSA ([6]; pH 7.4) | chromatographic logD [7] | PB (plasma protein; [9]) | CNS+/- [8] | k HSA [6, 10] | kIAM ([5]; Table S9, external group) | log kIAM ([5]; Table S9, external group) | kHSA [6] | PB (plasma protein; Table S6, external group (n = 38), given as fraction)
O=C1CN=C(c2ccccn2)c2cc(Br)ccc2N1 [bromazepam] | 0.90 | 0.81 | 0.87 | 0.83 | 0.34 | 2.21 | 0.63 | -0.2 | 0.7 | 1 | – | – | – | – | –
COc1ccc(C(CN(C)C)C2(O)CCCCC2)cc1 (stereo not drawn) [venlafaxine] | – | – | – | – | 0.92 | 8.25 | 1.05 | 0.02 | 0.27 | – | – | – | – | – | –
CN1CCN=C(c2ccccc2)c2cc(Cl)ccc21 [medazepam] | 0.94 | 0.65 | 0.91 | 0.66 | 1.54 | 34.65 | 17.86 | 1.25 | – | – | – | – | – | – | –
OC(CNCC(O)C1CCc2cc(F)ccc2O1)C1CCc2cc(F)ccc2O1 (stereo not drawn) [nebivolol] | 0.75 | 0.40 | 0.75 | 0.40 | – | – | – | 0.87 | 0.98 | 1 | 7.49 | – | – | – | –
COc1ccccc1OCCNCC(O)COc1cccc2[nH]c3ccccc3c12 (stereo not drawn) [carvedilol] | 0.9 | – | 0.73 | – | – | – | – | 1.16 | 0.98 | 0 | 14.5 | – | – | – | –
CCOCCn1c(C2CCN(CCc3ccc(C(C)(C)C(=O)O)cc3)CC2)nc2ccccc21 [bilastine] | 0.44 | 0.72 | 0.46 | 0.76 | -0.26 | 0.55 | – | -0.17 | 0.87 | – | 0.67 | – | – | – | –
Cc1ccc(O)c([C@H](CCN(C(C)C)C(C)C)c2ccccc2)c1 [tolterodine] | – | – | – | – | -0.68 | 0.21 | 2.9 | 0.46 | – | – | – | – | – | – | –
NC(N)=Nc1nc(CSCCC(N)=NS(N)(=O)=O)cs1 [famotidine] | 0.71 | 0.99 | 0.70 | 0.98 | – | – | – | 0 | – | – | 0.99 | – | – | – | –
CC(=O)S[C@@H]1CC2=CC(=O)CC[C@]2(C)[C@H]2CC[C@@]3(C)[C@@H](CC[C@@]34CCC(=O)O4)[C@H]12 [spironolactone] | 0.96 | 0.77 | 0.98 | 0.78 | 1.13 | 13.38 | – | -0.09 | 0.9 | – | 0.82 | – | – | – | –
NCC1(CC(=O)O)CCCCC1 [gabapentin] | – | – | – | – | – | – | – | -0.84 | – | – | – | 1.70 | 0.23 | 0.15 | 0.03
Cc1nc2n(c(=O)c1CCN1CCC(c3noc4cc(F)ccc34)CC1)CCCC2 [risperidone] | – | – | – | – | 0.68 | 4.83 | 2.11 | 0.32 | – | – | – | – | – | – | –
CC(=O)OCC(=O)[C@@]1(O)CC[C@H]2[C@@H]3CCC4=CC(=O)CC[C@]4(C)[C@H]3[C@@H](O)C[C@@]21C [hydrocortisone acetate] | 0.96 | – | 0.96 | – | 0.45 | 2.82 | – | -0.18 | 0.95 | – | 0.66 | – | – | – | –
Cc1cc2c(s1)Nc1ccccc1N=C2N1CCN(C)CC1 [olanzapine] | – | – | – | – | 1.31 | 20.31 | 4.83 | 0.68 | – | – | – | – | – | – | –
CN1C[C@H](C(=O)N[C@]2(C)O[C@@]3(O)[C@@H]4CCCN4C(=O)[C@H](Cc4ccccc4)N3C2=O)C[C@@H]2c3cccc4[nH]cc(c34)C[C@H]21 [dihydroergotamine] | 0.75 | 0.78 | 0.72 | 0.78 | – | – | 0.23 | -0.64 | 0.93 | 0 | – | – | – | – | –

From paper PMC9182007, “Statistical Methods in the Study of Protein Binding and Its Relationship to Drug Bioavailability in Breast Milk” (Molecules, 2022)
